Two compounds from ChEMBL document CHEMBL3621055, “Mechanism of forming trimer, self-assembling nano-particle and inhibiting tumor growth of small molecule CIPPCT” (Medchemcomm, 2014) can be followed below.

Data set [1] concerns CCRF S-180. Put plainly: Antitumor activity against mouse S180 cells allografted in ICR mouse assessed as tumor growth inhibition at 4 umol/kg, po qd for 7 days measured 24 hrs after last dose. In kind it is functional, organism-based.
The subject of another data set is SW480. Put plainly: Cytotoxicity against human SW480 cells after 48 hrs by MTT assay. The format is functional, cell-based. To be noted: SW480, 48 h. (In general: Tetrazolium dyes change colour on reduction, which living cells bring about.)
The test system of the next data set is HT-29. In words: Cytotoxicity against human HT-29 cells after 48 hrs by MTT assay. To be noted: HT-29, 48 h. In kind it is functional, cell-based.
The subject of data set [2] is CCRF S-180. In words: Antitumor activity against mouse S180 cells allografted in ICR mouse assessed as tumor growth inhibition administered as po qd for 7 days measured 24 hrs after last dose. In kind it is functional.
The subject of data set [3] is CCRF S-180. In words: Antitumor activity against mouse S180 cells allografted in ICR mouse assessed as decrease of uPA levels in serum administered as po qd for 7 days measured 24 hrs after last dose. In kind it is functional, organism-based.
The subject of the next data set is HL-60. Put plainly: Cytotoxicity against human HL60 cells after 48 hrs by MTT assay. The format is functional, cell-based. To be noted: HL-60, 48 h.
Another data set has as its system HeLa. Put plainly: Cytotoxicity against human HeLa cells after 48 hrs by MTT assay. In kind it is functional, cell-based.
The test system of data set [4] is HepG2. In words: Drug uptake in human HepG2 cells at 10^-10 M after 15 to 240 mins by fluorescence assay. The format is ADME, cell-based. As to conditions: hepg2, 0.0001 µM.
For data set [5], the system named is HepG2. Put plainly: Cytotoxicity against human HepG2 cells after 48 hrs by MTT assay. In kind it is functional, cell-based. As to conditions: HepG2, 48 h.
The subject of data set [6] is CCRF S-180. In words: Antitumor activity against mouse S180 cells allografted in ICR mouse assessed as tumor growth inhibition at 2 umol/kg, ip qd for 7 days measured 24 hrs after last dose. The format is functional, organism-based.

Usually IC50 stands for the midpoint of a concentration-inhibition curve. A low value points to inhibition by little substance.

Each structure is given as a SMILES string. The source made the active and inactive calls. The rule behind the calls is not given here. Some results are limits rather than exact numbers.

Turning to `C[C@H](O)[C@H](NC(=O)[C@H](Cc1c[nH]c2ccccc12)NCC[C@H]1c2[nH]c3ccccc3c2C[C@H]2C(=O)N3CCC[C@H]3C(=O)N21)C(=O)OCc1ccccc1`, in the data set with CCRF S-180 [1], the inhibition entry was “Active”. For the same compound, the IC50 is > 100 µM in the data set with SW480; > 20 µM in the data set with HT-29; > 10 µM in the data set on HL-60; > 100 µM in the data set on HeLa; > 60 µM with HepG2 [5]. Also, the MED with CCRF S-180 [2] turned out to be 0.16 µmol/kg. In addition, in the data set on CCRF S-180 [2], the inhibition entry is “Dose-dependent effect”. Besides, in the data set on CCRF S-180 [3], the Activity entry was “Dose-dependent effect”. Also, in the data set with HepG2 [4], the Drug uptake result is recorded as “Active”.

Regarding `COc1cccc2c1C(=O)c1c(O)c3c(c(O)c1C2=O)C[C@@](O)(C(=O)CO)C[C@@H]3O[C@H]1C[C@H](N)[C@H](O)[C@H](C)O1`, the inhibition entry in the data set with CCRF S-180 [6] is “Active”.
